From patent US10294202B2, “Pyrrolidinones as herbicides” (FMC Corporation, priority 2013, dated 2019)

Tests used:
[1] = system: barnyardgrass; assay: Test A pre-/postemergence herbicide test; format: in vivo, Echinochloa crus-galli
Method in brief: (§1)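 Directed soil spray to seeded pots (preemergence) or spray onto one- to two-leaf seedlings 2–10 cm tall (postemergence); loam/sand substrate throughout. Evaluated visually after about 10 days against untreated plants, 0 = no effect, 100 = complete control.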

[2] = system: kochia; assay: Test A pre-/postemergence herbicide test; format: in vivo, Kochia scoparia
Method in brief: as §1

[3] = system: ragweed; assay: Test A pre-/postemergence herbicide test; format: in vivo, Ambrosia elatior
Method in brief: as §1

[4] = system: ryegrass, Italian; assay: Test A pre-/postemergence herbicide test; format: in vivo, Lolium multiflorum
Method in brief: as §1

[5] = system: giant foxtail; assay: Test A pre-/postemergence herbicide test; format: in vivo, Setaria faberii
Method in brief: as §1

[6] = system: pigweed; assay: Test A pre-/postemergence herbicide test; format: in vivo, Amaranthus retroflexus
Method in brief: as §1

[7] = system: wheat; assay: Test A pre-/postemergence herbicide test; format: in vivo, Triticum aestivum; details: Postemergence
Method in brief: as §1

[8] = system: corn; assay: Test A pre-/postemergence herbicide test; format: in vivo, Zea mays; details: Postemergence
Method in brief: as §1

[9] = system: blackgrass; assay: Test A postemergence herbicide test; format: in vivo, Alopecurus myosuroides
Method in brief: (§2)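 Ratings compare treated with untreated plants roughly 10 days after a postemergence application made at the one- to two-leaf stage. Scoring uses 0–100, where 0 means no effect and 100 complete control.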

[10] = system: galium; assay: Test A postemergence herbicide test; format: in vivo, Galium aparine
Method in brief: as §2

[11] = system: rice; assay: Test B flooded paddy test; format: in vivo, Oryza sativa; details: Flood, scale of 0 to 100 where 0 is no effect and 100 is complete control
Method in brief: (§3)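 Plants were grown to the 2-leaf stage, then pots were flooded to 3 cm above the soil and compound was applied directly into the paddy water, with that depth held throughout. After 13 to 15 days in a greenhouse, injury was rated visually against untreated controls on a 0 to 100 scale (100 = complete control).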

[12] = system: sedge, umbrella; assay: Test B flooded paddy test; format: in vivo, Cyperus difformis; details: Flood, scale of 0 to 100 where 0 is no effect and 100 is complete control
Method in brief: as §3

[13] = system: ducksalad; assay: Test B flooded paddy test; format: in vivo, Heteranthera limosa; details: Flood, scale of 0 to 100 where 0 is no effect and 100 is complete control
Method in brief: as §3

[14] = system: barnyardgrass; assay: Test B flooded paddy test; format: in vivo, Echinochloa crus-galli; details: Flood, scale of 0 to 100 where 0 is no effect and 100 is complete control
Method in brief: as §3

[15] = 125 g ai/ha, visual rating, 0 to 100 scale, 0 no effect, 100 complete control, approximately 10 days, preemergence
[16] = Postemergence, 125 g ai/ha, 0 to 100 scale, 0 is no effect, 100 is complete control
[17] = preemergence, 500 g ai/ha, 0 to 100 scale, 0 is no effect and 100 is complete control
[18] = 125 g ai/ha, 0 to 100 scale, 0 is no effect, 100 is complete control
[19] = Postemergence, 500 g ai/ha, 0 to 100 scale (0 no effect, 100 complete control)
[20] = Preemergence, 125 g ai/ha, 0 to 100 scale where 0 is no effect and 100 is complete control
[21] = Postemergence, 125 g ai/ha, visual rating on 0 to 100 scale (0 no effect, 100 complete control), approx. 10 days
[22] = 500 g ai/ha, 0 to 100 scale (0 no effect, 100 complete control)

CC(C)(C)c1cccc(C2CNC(=O)C2C(=O)Nc2ccccc2C(F)(F)F)c1 (racemic) [Compound 201]
0: Plant response rating, Barnyardgrass [1, 15] | Plant response rating, Barnyardgrass [1, 16] | Plant response rating, Kochia [2, 15] | Plant response rating, Kochia [2, 16] | Kochia plant response rating (0 to 100 scale, 0 is no effect, 100 is complete control) ([2]; Postemergence, 500 g ai/ha) | Plant response rating, Kochia [2, 17] | Plant response rating, Ragweed [3, 15] | Plant response rating, Ragweed [3, 16] | Ragweed plant response rating (0 to 100 scale, 0 is no effect, 100 is complete control) ([3]; Postemergence, 500 g ai/ha) | Plant response rating, Ragweed [3, 17] | Plant response rating, Ryegrass, Italian [4, 15] | Plant response rating, Ryegrass, Italian [4, 16] | Ryegrass, Italian plant response rating (0 to 100 scale, 0 is no effect, 100 is complete control) ([4]; Postemergence, 500 g ai/ha) | Plant response rating, Ryegrass, Italian [4, 17] | Plant response rating, Foxtail, Giant [5, 16] | Foxtail, Giant plant response rating (0 to 100 scale, 0 is no effect, 100 is complete control) ([5]; Postemergence, 500 g ai/ha) | Plant response rating, Pigweed [6, 15] | Plant response rating, Pigweed [6, 16] | Pigweed plant response rating (0 to 100 scale, 0 is no effect, 100 is complete control) ([6]; Postemergence, 500 g ai/ha) | Plant response rating, Pigweed [6, 17] | Plant response rating, Wheat [7, 18] | Wheat plant response rating (0 to 100 scale, 0 is no effect, 100 is complete control) ([7]; 500 g ai/ha) | Plant response rating, Corn [8, 18] | Corn plant response rating (0 to 100 scale, 0 is no effect, 100 is complete control) ([8]; 500 g ai/ha) | Plant response rating, Blackgrass [9, 18] | Blackgrass plant response rating (0 to 100 scale, 0 is no effect, 100 is complete control) ([9]; 500 g ai/ha) | Plant response rating, Galium [10, 18] | Galium plant response rating (0 to 100 scale, 0 is no effect, 100 is complete control) ([10]; 500 g ai/ha) | Plant response rating, Rice ([11]; 1000 g ai/ha) | Plant response rating, Sedge, Umbrella ([12]; 1000 g ai/ha)
20: Plant response rating, Barnyardgrass [1, 17] | Plant response rating, Foxtail, Giant [5, 15] | Plant response rating, Barnyardgrass ([14]; 1000 g ai/ha)
30: Barnyardgrass plant response rating (0 to 100 scale, 0 is no effect, 100 is complete control) ([1]; Postemergence, 500 g ai/ha) | Plant response rating, Foxtail, Giant [5, 17]
70: Plant response rating, Ducksalad ([13]; 1000 g ai/ha)

O=C1NCC(c2cc3ccccc3o2)C1C(=O)Nc1ccccc1F (racemic) [Compound 281]
40: Plant response rating, Barnyardgrass [1, 16]
20: Plant response rating, Barnyardgrass ([14]; 500 g ai/ha)
10: Plant response rating, Foxtail, Giant [5, 20]
70: Plant response rating, Barnyardgrass [1, 19] | Plant response rating, Barnyardgrass [1, 17] | Plant response rating, Foxtail, Giant [5, 17]
75: Plant response rating, Ducksalad ([13]; 500 g ai/ha)
50: Plant response rating, Barnyardgrass [1, 20]
0: Plant response rating, Kochia [2, 16] | Plant response rating, Kochia [2, 19] | Plant response rating, Kochia [2, 20] | Plant response rating, Kochia [2, 17] | Plant response rating, Ragweed [3, 21] | Plant response rating, Ragweed [3, 19] | Plant response rating, Ragweed [3, 20] | Plant response rating, Ragweed [3, 17] | Plant response rating, Ryegrass, Italian [4, 21] | Plant response rating, Ryegrass, Italian [4, 19] | Plant response rating, Ryegrass, Italian [4, 20] | Plant response rating, Ryegrass, Italian [4, 17] | Plant response rating, Foxtail, Giant [5, 16] | Plant response rating, Foxtail, Giant [5, 19] | Plant response rating, Pigweed [6, 21] | Plant response rating, Pigweed [6, 19] | Plant response rating, Pigweed [6, 20] | Plant response rating, Pigweed [6, 17] | Plant response rating, Wheat ([7]; 125 g ai/ha, visual rating on 0 to 100 scale (0 no effect, 100 complete control), approx. 10 days) | Plant response rating, Wheat [7, 22] | Plant response rating, Corn [8, 18] | Plant response rating, Corn [8, 22] | Plant response rating, Blackgrass [9, 18] | Plant response rating, Blackgrass [9, 22] | Plant response rating, Galium [10, 18] | Plant response rating, Galium [10, 22] | Plant response rating, Rice ([11]; 500 g ai/ha) | Plant response rating, Sedge, Umbrella ([12]; 500 g ai/ha)
